Measured values taken from patent publication US5672715A, “Herbicidal substituted 3-aryl-pyrazoles” (Monsanto Company, priority 1995, dated 1997).
Where “and” joins values, the source holds several entries; their conditions need not be identical. Equal entries are not always repeated.

How the values were obtained:
Format in all cases: in vivo
Wheat [1] = experiment: post-emergence herbicide test; conditions: for inhibition at 7.95803 g/ha / inhibition at 40.0143 g/ha / inhibition at 1000.92 g/ha / inhibition at 5043.82 g/ha / inhibition at 200.072 g/ha: Triticum aestivum, post-emergence, read-out: % plant inhibition; for inhibition at 7.95803 g/ha: 0.0071 lb/A; for inhibition at 40.0143 g/ha: 0.0357 lb/A; for inhibition at 5043.82 g/ha: 4.5 lb/A
Summary of the method: (§1)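 Plants were raised from seed in topsoil pans in the greenhouse and treated post-emergence at two to three weeks of age. Candidate chemical was applied in spray solution or suspension containing about 0.4% emulsifier at 1870 L/Ha. Activity recorded as percent inhibition.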

Cocklebur = experiment: post-emergence herbicide test; conditions: Xanthium strumarium, post-emergence, read-out: % plant inhibition; for inhibition at 7.95803 g/ha: 0.0071 lb/A; for inhibition at 40.0143 g/ha: 0.0357 lb/A; for inhibition at 200.072 g/ha: 0.1785 lb/A; for inhibition at 5043.82 g/ha: 4.5 lb/A; for inhibition at 1000.92 g/ha: 0.893 lb/A
Summary of the method: as §1

Bedstraw Catchweed [2] = experiment: post-emergence herbicide test; conditions: for inhibition at 7.95803 g/ha / inhibition at 40.0143 g/ha / inhibition at 1000.92 g/ha / inhibition at 5043.82 g/ha / inhibition at 200.072 g/ha: Galium aparine, post-emergence, read-out: % plant inhibition; for inhibition at 7.95803 g/ha: 0.0071 lb/A; for inhibition at 40.0143 g/ha: 0.0357 lb/A; for inhibition at 5043.82 g/ha: 4.5 lb/A; for inhibition at 200.072 g/ha: 0.1785 lb/A
Summary of the method: as §1

Soybean = experiment: post-emergence herbicide test; conditions: for inhibition at 7.95803 g/ha: 0.0071 lb/A; for inhibition at 40.0143 g/ha: 0.0357 lb/A; for inhibition at 200.072 g/ha: 0.1785 lb/A; for inhibition at 5043.82 g/ha: 4.5 lb/A
Summary of the method: as §1

Barnyardgrass = experiment: post-emergence herbicide test; conditions: Echinochloa crus-galli, post-emergence, read-out: % plant inhibition; for inhibition at 7.95803 g/ha: 0.0071 lb/A; for inhibition at 40.0143 g/ha: 0.0357 lb/A; for inhibition at 200.072 g/ha: 0.1785 lb/A; for inhibition at 5043.82 g/ha: 4.5 lb/A; for inhibition at 1000.92 g/ha: 0.893 lb/A
Summary of the method: as §1

Blackgrass = experiment: pre-emergence herbicide test
Summary of the method: (§2)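 Herbicidal effect was assessed as percent inhibition about 14 days after sowing. A known amount of compound was added to the covering topsoil, and the pans were subirrigated in a greenhouse.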

Wheat [3] = experiment: pre-emergence herbicide test; conditions: Triticum aestivum, pre-emergence, read-out: % plant inhibition
Summary of the method: as §2

Common Chickweed = experiment: pre-emergence herbicide test; conditions: pre-emergence, read-out: % plant inhibition
Summary of the method: as §2

Bedstraw Catchweed [4] = experiment: pre-emergence herbicide test; conditions: for inhibition at 1000.92 g/ha: 0.893 lb/A
Summary of the method: as §2

[5] = Glycine max, post-emergence, read-out: % plant inhibition
[6] = Galium aparine, pre-emergence, 0.1785 lb/A, read-out: % plant inhibition
[7] = Galium aparine, pre-emergence, read-out: % plant inhibition
[8] = Glycine max, post-emergence, 0.893 lb/A, read-out: % plant inhibition

Row | Compound | inhibition at 7.95803 g/ha (Wheat [1]) [%] | inhibition at 40.0143 g/ha (Wheat [1]) [%] | inhibition at 1000.92 g/ha (Wheat [1]; 0.893 lb/A) [%] | inhibition at 5043.82 g/ha (Wheat [1]) [%] | inhibition at 7.95803 g/ha (Cocklebur) [%] | inhibition at 40.0143 g/ha (Cocklebur) [%] | inhibition at 200.072 g/ha (Cocklebur) [%] | inhibition at 5043.82 g/ha (Cocklebur) [%] | inhibition at 7.95803 g/ha (Bedstraw Catchweed [2]) [%] | inhibition at 40.0143 g/ha (Bedstraw Catchweed [2]) [%] | inhibition at 1000.92 g/ha (Bedstraw Catchweed [2]; 0.893 lb/A) [%] | inhibition at 5043.82 g/ha (Bedstraw Catchweed [2]) [%] | inhibition at 7.95803 g/ha (Soybean; [5]) [%] | inhibition at 40.0143 g/ha (Soybean; [5]) [%] | inhibition at 200.072 g/ha (Soybean; [5]) [%] | inhibition at 5043.82 g/ha (Soybean; [5]) [%] | inhibition at 7.95803 g/ha (Barnyardgrass) [%] | inhibition at 40.0143 g/ha (Barnyardgrass) [%] | inhibition at 200.072 g/ha (Barnyardgrass) [%] | inhibition at 5043.82 g/ha (Barnyardgrass) [%] | also measured
1 | Cc1c(-c2cc(F)c([N+](=O)[O-])cc2F)nn(C)c1C(F)(F)F [Compound 35] | 0 | 0 | 20 | 25 | 0 | 0 | 0 | 90 | 0 | 25 | 75 | 85 | 0 | 0 | 25 | 55 | 0 | 0 | 0 | 65 | % plant inhibition (Wheat [1]; 0.1785 lb/A): 5%; % plant inhibition (Wheat [1]; 0.893 lb/A): 15%; inhibition (Cocklebur; 0.1725 lb/A): 0%; % plant inhibition (Bedstraw Catchweed [2]; 0.893 lb/A): 95%; % plant inhibition (Soybean; 0.893 lb/A): 30%; inhibition (Soybean; Glycine max, post-emergence, 0.1725 lb/A, read-out: % plant inhibition): 20%; inhibition at 200.072 g/ha (Blackgrass; Alopecurus myosuroides, pre-emergence, 0.1785 lb/A, read-out: % plant inhibition): 0%; inhibition at 1000.92 g/ha (Blackgrass; Alopecurus myosuroides, pre-emergence, 0.893 lb/A, read-out: % plant inhibition): 35%; inhibition at 5043.82 g/ha (Blackgrass; Alopecurus myosuroides, pre-emergence, 4.5 lb/A, read-out: % plant inhibition): 80%; inhibition at 200.072 g/ha (Wheat [3]; 0.1785 lb/A): 0%; inhibition at 1000.92 g/ha (Wheat [3]; 0.893 lb/A): 0%; inhibition at 5043.82 g/ha (Wheat [3]; 4.5 lb/A): 10%; inhibition at 200.072 g/ha (Common Chickweed; 0.1785 lb/A): 0%; inhibition at 1000.92 g/ha (Common Chickweed; 0.893 lb/A): 35%; inhibition at 5043.82 g/ha (Common Chickweed; 4.5 lb/A): 95%; inhibition at 200.072 g/ha (Bedstraw Catchweed [4]; [6]): 30%; inhibition at 1000.92 g/ha (Bedstraw Catchweed [4]; [7]): 100%; inhibition at 5043.82 g/ha (Bedstraw Catchweed [4]; Galium aparine, pre-emergence, 4.5 lb/A, read-out: % plant inhibition): 100%
2 | COc1cc(-c2nn(C)c(C(F)(F)F)c2C)c(F)cc1[N+](=O)[O-] [Compound 36] | 10 | 5 | 25 |  | 75 | 0 | 60 |  | 0 | 25 | 75 |  | 15 | 25 | 35 |  | 0 | 0 | 45 |  | inhibition at 200.072 g/ha (Wheat [1]; 0.1785 lb/A): 20%; inhibition at 1000.92 g/ha (Cocklebur): 98%; inhibition at 200.072 g/ha (Bedstraw Catchweed [2]): 50%; inhibition at 1000.92 g/ha (Soybean; [8]): 45%; inhibition at 1000.92 g/ha (Barnyardgrass): 50%; % plant inhibition (Blackgrass; 0.893 lb/A): 100% and 50%; inhibition at 7.95803 g/ha (Blackgrass; Alopecurus myosuroides, pre-emergence, 0.0071 lb/A, read-out: % plant inhibition): 0%; inhibition at 40.0143 g/ha (Blackgrass; Alopecurus myosuroides, pre-emergence, 0.0357 lb/A, read-out: % plant inhibition): 0%; inhibition at 7.95803 g/ha (Wheat [3]; 0.0071 lb/A): 0%; inhibition at 40.0143 g/ha (Wheat [3]; 0.0357 lb/A): 0%; inhibition at 7.95803 g/ha (Common Chickweed; 0.0071 lb/A): 0%; % plant inhibition (Bedstraw Catchweed [4]; 0.1785 lb/A): 80%; inhibition at 7.95803 g/ha (Bedstraw Catchweed [4]; Galium aparine, pre-emergence, 0.0071 lb/A, read-out: % plant inhibition): 0%; inhibition at 200.072 g/ha (Bedstraw Catchweed [4]; [6]): 100%; inhibition at 1000.92 g/ha (Bedstraw Catchweed [4]; [7]): 100%
3 | Cc1c(-c2cc(O)c(Cl)cc2F)nn(C)c1C(F)(F)F [Compound 40] |  | 0 | 20 | 25 |  | 80 | 65 | 100 |  | 20 | 98 | 100 |  | 25 | 30 | 80 |  | 0 | 0 | 85 | inhibition at 200.072 g/ha (Wheat [1]; 0.1785 lb/A): 15%; inhibition at 1000.92 g/ha (Cocklebur): 70%; inhibition at 200.072 g/ha (Bedstraw Catchweed [2]): 60%; inhibition at 1000.92 g/ha (Soybean; [8]): 70%; inhibition at 1000.92 g/ha (Barnyardgrass): 65%
